Like-named read-outs stand apart in the source and are kept apart here.

Data on 14 molecules can be found in patent EP2272817A1, “PAI-1 INHIBITOR” (Institute of Medicinal Molecular Design, Inc., priority 2008, dated 2009).

Assay [1] deals with T1, recombinant human PAI-1 (Homo sapiens, UniProt P05121). Put plainly: biochemical. As to conditions: for inhibition at 25 µM: read-out: Inhibition Rate of PAI-1 Activity (%), Compound Concentration 25µM.
Assay [2] has as its target T1, recombinant human PAI-1. Briefly: Test Example 2: Human PAI-1 Inhibitory Activity (pH 7.4 HEPES buffer, 10 minutes incubation with two-chain tPA). In kind it is biochemical. Also on record: purchased Molecular Innovations, Inc. To be noted: read-out: Inhibition Rate of PAI-1 Activity (%). The protocol:
0.1 M HEPES, 0.1 M NaCl. 1 mM EDTA. 0.1 % Polyethylene glycol 8,000 (Hampton Research Corporation),
2 mM Dimethyldecylphoshine oxide [Apo-10] (Fluka Corporation)

A further assay deals with T2, recombinant rat PAI-1 (Rattus norvegicus, UniProt P20961).
T2 sequence (P20961 24-402): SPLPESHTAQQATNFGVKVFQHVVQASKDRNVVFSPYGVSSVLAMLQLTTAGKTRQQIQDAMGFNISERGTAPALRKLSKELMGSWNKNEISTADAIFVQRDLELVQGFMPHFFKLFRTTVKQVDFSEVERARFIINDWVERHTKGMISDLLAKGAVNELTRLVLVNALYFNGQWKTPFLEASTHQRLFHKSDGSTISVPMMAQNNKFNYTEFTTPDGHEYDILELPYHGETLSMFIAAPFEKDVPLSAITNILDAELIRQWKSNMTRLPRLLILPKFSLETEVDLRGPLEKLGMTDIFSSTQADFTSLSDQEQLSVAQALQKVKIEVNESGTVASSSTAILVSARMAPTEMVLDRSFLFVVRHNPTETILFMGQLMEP
Briefly: biochemical. To be noted: read-out: Inhibition Rate of PAI-1 Activity (%).

The mark [3] stands for this setting: read-out: Inhibition Rate of PAI-1 Activity (%), Compound Concentration 5µM.
The mark [4] stands for this setting: read-out: Inhibition Rate of PAI-1 Activity (%), Compound Concentration 10µM.
Where [5] appears, read: read-out: Inhibition Rate of PAI-1 Activity (%).

T1 sequence (P05121 24-402): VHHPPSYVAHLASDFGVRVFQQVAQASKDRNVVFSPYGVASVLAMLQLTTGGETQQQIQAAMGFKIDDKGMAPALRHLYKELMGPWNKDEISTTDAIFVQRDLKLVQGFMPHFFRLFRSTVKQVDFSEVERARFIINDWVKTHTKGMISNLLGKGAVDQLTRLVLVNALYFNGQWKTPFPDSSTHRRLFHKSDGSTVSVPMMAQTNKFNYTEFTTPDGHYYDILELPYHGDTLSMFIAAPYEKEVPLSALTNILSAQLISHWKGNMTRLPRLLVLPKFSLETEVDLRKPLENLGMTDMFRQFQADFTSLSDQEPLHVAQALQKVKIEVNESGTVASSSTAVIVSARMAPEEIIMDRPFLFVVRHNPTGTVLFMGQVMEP

As to `CC(C)(C)c1ccc(COc2ccc(-c3ccc(OC(F)(F)F)cc3)cc2N(Cc2ccccc2)C(=O)C(=O)O)cc1` [Compound 179], the inhibition at 5 µM on recombinant human PAI-1 [1] (setting [3]) is 64%. Also, at recombinant human PAI-1 [1] (setting [4]), the inhibition at 10 µM is 91%. In addition, at recombinant human PAI-1 [2], the inhibition at 0.1 µM was found to be 1%, the inhibition at 0.3 µM amounted to 19%, the inhibition at 1 µM was determined as 68% and the inhibition at 3 µM is more than 99%. Moreover, at recombinant rat PAI-1, the inhibition at 0.3 µM is 7%, the inhibition at 1 µM was 38%, the inhibition at 3 µM was more than 99% and the inhibition at 10 µM was more than 99%.

In the case of `CCCOc1ccc(-c2ccc(OC(F)(F)F)cc2)cc1N(Cc1ccc(C(C)(C)C)cc1)C(=O)C(=O)O` [Compound 188], the inhibition at 5 µM on recombinant human PAI-1 [1] (setting [3]) turned out to be 73%. At recombinant human PAI-1 [1] (setting [4]), the inhibition at 10 µM was found to be 91%. Also, the inhibition at 25 µM on recombinant human PAI-1 [1] came out at 91%. Moreover, on recombinant human PAI-1 [2], the inhibition at 0.1 µM worked out at 0%, the inhibition at 0.3 µM was 0%, the inhibition at 1 µM was 33% and the inhibition at 3 µM was found to be 97%. At recombinant rat PAI-1, the inhibition at 0.3 µM was found to be 0%, the inhibition at 1 µM was 14%, the inhibition at 3 µM was determined as 84% and the inhibition at 10 µM is more than 99%.

For the molecule `CC(C)(C)c1ccc(CN(C(=O)C(=O)O)c2ccc(Cl)cc2-c2ccc(OC(F)(F)F)cc2)cc1` [Compound 192], the inhibition at 5 µM at recombinant human PAI-1 [1] (setting [3]) came to 80%. Besides, on recombinant human PAI-1 [1] (setting [4]), the inhibition at 10 µM was determined as 95%. On recombinant human PAI-1 [1], the inhibition at 25 µM came out at 94%. Also, at recombinant human PAI-1 [2], the inhibition at 0.1 µM came out at 0%, the inhibition at 0.3 µM is 1%, the inhibition at 1 µM stood at 35% and the inhibition at 3 µM is more than 99%. On recombinant rat PAI-1, the inhibition at 0.3 µM worked out at 0%, the inhibition at 1 µM came out at 8%, the inhibition at 3 µM is 76% and the inhibition at 10 µM turned out to be 96%.

Regarding `CCCCOc1ccc(N(Cc2ccc(C(C)(C)C)cc2)C(=O)C(=O)O)cc1-c1ccc(OC(F)(F)F)cc1` [Compound 193], the inhibition at 5 µM on recombinant human PAI-1 [1] (setting [3]) was 81%. Further, the inhibition at 10 µM at recombinant human PAI-1 [1] (setting [4]) is 89%. In addition, at recombinant human PAI-1 [2], the inhibition at 0.1 µM was 2%, the inhibition at 0.3 µM came out at 5%, the inhibition at 1 µM amounted to 34% and the inhibition at 3 µM is more than 99%. Further, on recombinant rat PAI-1, the inhibition at 0.3 µM was found to be 2%, the inhibition at 1 µM is 26%, the inhibition at 3 µM amounted to 81% and the inhibition at 10 µM stood at 70%.

On to `CC(C)Oc1ccc(N(Cc2ccc(C(C)(C)C)cc2)C(=O)C(=O)O)cc1-c1ccc(OC(F)(F)F)cc1` [Compound 211], for which, on recombinant human PAI-1 [1] (setting [5]), the inhibition at 5 µM turned out to be 87% and the inhibition at 10 µM was 96%. At recombinant human PAI-1 [2], the inhibition at 0.1 µM worked out at 9%, the inhibition at 0.3 µM was 16%, the inhibition at 1 µM was found to be 43% and the inhibition at 3 µM was 96%. On recombinant rat PAI-1, the inhibition at 0.3 µM is 4%, the inhibition at 1 µM stood at 17%, the inhibition at 3 µM stood at 78% and the inhibition at 10 µM was found to be 87%.

On to `CC(C)(C)c1ccc(CN(C(=O)C(=O)O)c2ccc(OCc3ccccc3)c(-c3ccc(OC(F)(F)F)cc3)c2)cc1` [Compound 212], for which, on recombinant human PAI-1 [1] (setting [5]), the inhibition at 5 µM worked out at 78% and the inhibition at 10 µM worked out at 95%. Also, on recombinant human PAI-1 [2], the inhibition at 0.1 µM is 5%, the inhibition at 0.3 µM is 15%, the inhibition at 1 µM is 64% and the inhibition at 3 µM came to 98%. Besides, at recombinant rat PAI-1, the inhibition at 0.3 µM was 8%, the inhibition at 1 µM was found to be 40%, the inhibition at 3 µM worked out at 73% and the inhibition at 10 µM is 67%.

`CCN(CC)c1ccc(N(Cc2ccc(C(C)(C)C)cc2)C(=O)C(=O)O)cc1-c1ccc(OC(F)(F)F)cc1` [Compound 213]: on recombinant human PAI-1 [1] (setting [5]), the inhibition at 5 µM stood at 93% and the inhibition at 10 µM was 84%. Further, on recombinant human PAI-1 [2], the inhibition at 0.1 µM was determined as 0%, the inhibition at 0.3 µM worked out at 10%, the inhibition at 1 µM came out at 48% and the inhibition at 3 µM was 98%. Also, at recombinant rat PAI-1, the inhibition at 0.3 µM amounted to 8%, the inhibition at 1 µM was 26%, the inhibition at 3 µM is 90% and the inhibition at 10 µM stood at 78%.

Regarding `CN(C)c1ccc(N(Cc2ccc(C(C)(C)C)cc2)C(=O)C(=O)O)cc1-c1ccc(OC(F)(F)F)cc1` [Compound 214], at recombinant human PAI-1 [1] (setting [5]), the inhibition at 5 µM came out at 87% and the inhibition at 10 µM worked out at 93%. Also, on recombinant human PAI-1 [2], the inhibition at 0.1 µM was 4%, the inhibition at 0.3 µM came out at 2%, the inhibition at 1 µM was 40% and the inhibition at 3 µM was found to be 96%. On recombinant rat PAI-1, the inhibition at 0.3 µM is 0%, the inhibition at 1 µM stood at 8%, the inhibition at 3 µM turned out to be 77% and the inhibition at 10 µM stood at 97%.

Consider `Cc1cc(N(C)C)c(-c2ccc(OC(F)(F)F)cc2)cc1N(Cc1ccc(C(C)(C)C)cc1)C(=O)C(=O)O` [Compound 215], for which, on recombinant human PAI-1 [1] (setting [5]), the inhibition at 5 µM was 90% and the inhibition at 10 µM turned out to be 92%. Further, at recombinant human PAI-1 [2], the inhibition at 0.1 µM was found to be 7%, the inhibition at 0.3 µM is 18%, the inhibition at 1 µM stood at 54% and the inhibition at 3 µM is 95%. Moreover, on recombinant rat PAI-1, the inhibition at 0.3 µM came to 2%, the inhibition at 1 µM was 16%, the inhibition at 3 µM stood at 84% and the inhibition at 10 µM came to 97%.

For the molecule `CC(C)(C)c1ccc(C(c2ccccc2)N(C(=O)C(=O)O)c2ccc(-c3ccc(OC(F)(F)F)cc3)cc2)cc1` (stereo not drawn) [Compound 222], the inhibition at 5 µM on recombinant human PAI-1 [1] (setting [3]) amounted to 74%. Besides, the inhibition at 10 µM at recombinant human PAI-1 [1] (setting [4]) was found to be 91%. At recombinant human PAI-1 [2], the inhibition at 0.1 µM was found to be 0%, the inhibition at 0.3 µM worked out at 3%, the inhibition at 1 µM turned out to be 45% and the inhibition at 3 µM is more than 99%. For the same molecule, at recombinant rat PAI-1, the inhibition at 0.3 µM came out at 3%, the inhibition at 1 µM is 32% and the inhibition at 3 µM came to 91%.

Consider `CCCCOc1ccc(N(CCCCc2ccccc2)C(=O)C(=O)O)cc1-c1ccc(OC(F)(F)F)cc1` [Compound 227], for which, on recombinant human PAI-1 [1] (setting [5]), the inhibition at 5 µM was found to be 63% and the inhibition at 10 µM came to 90%. Moreover, on recombinant human PAI-1 [2], the inhibition at 0.1 µM came out at 0%, the inhibition at 0.3 µM was determined as 7%, the inhibition at 1 µM is 41% and the inhibition at 3 µM is 98%. Also, at recombinant rat PAI-1, the inhibition at 0.3 µM came out at 0%, the inhibition at 1 µM came to 14%, the inhibition at 3 µM was found to be 77% and the inhibition at 10 µM was determined as 95%.

Regarding `CCC(CC)Oc1ccc(N(CCCc2ccccc2)C(=O)C(=O)O)cc1-c1ccc(OC(F)(F)F)cc1` [Compound 230], the inhibition at 5 µM on recombinant human PAI-1 [1] (setting [3]) was 75%. For the same molecule, the inhibition at 10 µM on recombinant human PAI-1 [1] (setting [4]) worked out at 95%. Also, the inhibition at 25 µM at recombinant human PAI-1 [1] came to 92%. Moreover, at recombinant human PAI-1 [2], the inhibition at 0.1 µM is 0%, the inhibition at 0.3 µM worked out at 8%, the inhibition at 1 µM came out at 27% and the inhibition at 3 µM came out at 96%. Moreover, on recombinant rat PAI-1, the inhibition at 0.3 µM turned out to be 0%, the inhibition at 1 µM is 13%, the inhibition at 3 µM came out at 83% and the inhibition at 10 µM was 94%.

For `CCCCOc1ccc(-c2ccc(OC(F)(F)F)cc2)cc1N(CCCCc1ccccc1)C(=O)C(=O)O` [Compound 231], the inhibition at 5 µM on recombinant human PAI-1 [1] (setting [3]) is 81%. In addition, the inhibition at 10 µM at recombinant human PAI-1 [1] (setting [4]) was determined as 97%. For the same molecule, the inhibition at 25 µM at recombinant human PAI-1 [1] turned out to be 94%. Also, on recombinant human PAI-1 [2], the inhibition at 0.1 µM was 0%, the inhibition at 0.3 µM was 6%, the inhibition at 1 µM is 34% and the inhibition at 3 µM was determined as 98%. Besides, on recombinant rat PAI-1, the inhibition at 0.3 µM turned out to be 3%, the inhibition at 1 µM was 18%, the inhibition at 3 µM is 89% and the inhibition at 10 µM was more than 99%.

As for `CCN(CC)c1ccc(N(CCCc2ccccc2)C(=O)C(=O)O)c(-c2ccc(OC(F)(F)F)cc2)c1` [Compound 238], the inhibition at 5 µM at recombinant human PAI-1 [1] (setting [3]) stood at 76%. Further, the inhibition at 10 µM at recombinant human PAI-1 [1] (setting [4]) amounted to 95%. Besides, at recombinant human PAI-1 [1], the inhibition at 25 µM was determined as 93%. For the same molecule, at recombinant human PAI-1 [2], the inhibition at 0.1 µM amounted to 0%, the inhibition at 0.3 µM was 0%, the inhibition at 1 µM turned out to be 21% and the inhibition at 3 µM is 87%. For the same molecule, on recombinant rat PAI-1, the inhibition at 0.3 µM was 0%, the inhibition at 1 µM is 8%, the inhibition at 3 µM was found to be 46% and the inhibition at 10 µM came to 98%.
